This note sets out measurements from patent publication US12404279B2, “Deubiquitinase inhibitors and methods of use thereof” (Molecure S.A., priority 2021, dated 2025).

Structures can show the parent of a compound that is named as a salt. Where two headings read alike, the source gives them in different places. Bounds are passed on as bounds.

This assay has as its target full-length USP7 (Homo sapiens (Human), UniProt Q93009). Kind of assay: Enzymatic assay to determine IC50 of USP7 inhibitors (Ubiquitin-Rhodamine 110 cleavage). Type of assay: biochemical. Particulars: for IC50: 0.5 nM USP7, 0.5 μM Ubiquitin-Rhodamine 110, 45 min at 37° C.; for inhibition at 1 µM: read-out: percent value of inhibition of USP7 activity. The method, boiled down:
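Enzyme: 0.5 nM full-length USP7 in HEPES pH 7.5 buffer with NaCl, DTT, BSA and Tween20, given 15 min at room temperature with DTT before compounds were added.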

The mark [1] stands for this setting: at 1 μM of the test compound, given where IC50 not determined yet.

Sequence of full-length USP7 (Q93009 whole entry): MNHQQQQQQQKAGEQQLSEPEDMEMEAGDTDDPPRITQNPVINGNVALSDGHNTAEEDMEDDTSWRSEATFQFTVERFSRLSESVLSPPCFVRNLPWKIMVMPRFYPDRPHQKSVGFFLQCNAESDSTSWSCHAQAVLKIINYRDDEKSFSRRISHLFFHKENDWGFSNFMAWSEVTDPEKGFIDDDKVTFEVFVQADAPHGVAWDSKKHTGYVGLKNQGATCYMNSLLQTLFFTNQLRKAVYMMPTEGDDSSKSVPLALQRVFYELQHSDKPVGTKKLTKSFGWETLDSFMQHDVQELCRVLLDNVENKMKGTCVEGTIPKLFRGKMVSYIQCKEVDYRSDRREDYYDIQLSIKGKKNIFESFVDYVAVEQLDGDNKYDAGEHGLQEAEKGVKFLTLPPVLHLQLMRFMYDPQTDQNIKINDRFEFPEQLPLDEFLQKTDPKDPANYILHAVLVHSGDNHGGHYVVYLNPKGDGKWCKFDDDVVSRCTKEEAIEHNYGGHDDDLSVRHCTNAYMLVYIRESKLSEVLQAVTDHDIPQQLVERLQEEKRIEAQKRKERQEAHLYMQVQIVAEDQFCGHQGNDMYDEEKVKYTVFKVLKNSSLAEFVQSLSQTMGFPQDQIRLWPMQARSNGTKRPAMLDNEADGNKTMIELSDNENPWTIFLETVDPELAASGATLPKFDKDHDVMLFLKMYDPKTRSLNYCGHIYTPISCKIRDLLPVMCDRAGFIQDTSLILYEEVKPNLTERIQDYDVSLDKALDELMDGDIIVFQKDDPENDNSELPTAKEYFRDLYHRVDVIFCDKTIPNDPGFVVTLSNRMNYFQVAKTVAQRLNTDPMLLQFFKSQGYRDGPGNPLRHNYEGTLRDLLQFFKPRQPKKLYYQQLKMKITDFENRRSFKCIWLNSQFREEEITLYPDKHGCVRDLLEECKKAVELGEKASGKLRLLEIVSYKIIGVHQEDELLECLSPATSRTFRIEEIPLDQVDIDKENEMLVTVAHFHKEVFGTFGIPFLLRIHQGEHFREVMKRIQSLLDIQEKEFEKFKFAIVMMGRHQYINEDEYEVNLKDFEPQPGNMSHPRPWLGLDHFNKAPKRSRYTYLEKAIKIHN

Turning to `Cc1cc(Cl)nc(-c2ccnc3cc(CN4C(=O)C5C(C4=O)C5(C)C)sc23)c1OC1CCNC1` (racemic) [Example 2, 3-((7-(6-chloro-4-methyl-3-(pyrrolidin-3-yloxy)pyridin-2-yl)thieno[3,2-b]pyridin-2-yl)methyl)-6,6-dimethyl-3-azabicyclo[3.1.0]hexane-2,4-dione hydrochloride], the IC50 was less than 500 nM.
Same read-out and setting: in the case of `Cc1cc(C(F)(F)F)nc(-c2ccnc3cc(CN4C(=O)C5C(C4=O)C5(C)C)sc23)c1C(=O)N1CCC2(CCCN2)C1` (centres unmarked) [Example 71, 6,6-dimethyl-3-((7-(4-methyl-3-(1,7-diazaspiro[4.4]nonane-7-carbonyl)-6-(trifluoromethyl)pyridin-2-yl)thieno[3,2-b]pyridin-2-yl)methyl)-3-azabicyclo[3.1.0]hexane-2,4-dione dihydrochloride] it was less than 500 nM.
Turning to `Cc1cc(Cl)cc(-c2ccnc3cc(CC4C(=O)NCC4O)sc23)c1O[C@H]1CCCNC1` (stereo partly drawn) [Example 179, 3-((7-(5-chloro-3-methyl-2-(((S)-piperidin-3-yl)oxy)phenyl)thieno[3,2-b]pyridin-2-yl)methyl)-4-hydroxypyrrolidin-2-one 2,2,2-trifluoroacetate], the IC50 is less than 500 nM.
In the case of `Cc1cc(C(F)(F)F)nc(-c2ccnc3cc(CN4C(=O)C5C(C4=O)C5(C)C)sc23)c1C[C@H]1CNCCO1` (stereo partly drawn) [Example 95, 6,6-dimethyl-3-((7-(4-methyl-3-(((S)-morpholin-2-yl)methyl)-6-(trifluoromethyl)pyridin-2-yl)thieno[3,2-b]pyridin-2-yl)methyl)-3-azabicyclo[3.1.0]hexane-2,4-dione dihydrochloride], the IC50 was less than 500 nM.
On the same count and under the same terms, for `Cc1cc(C)c(NC2CCNC2)c(-c2ccnc3cc(CN4C(=O)C5C(C4=O)C5(C)C)sc23)n1` (racemic) [Example 124, 3-((7-(4,6-dimethyl-3-(pyrrolidin-3-ylamino)pyridin-2-yl)thieno[3,2-b]pyridin-2-yl)methyl)-6,6-dimethyl-3-azabicyclo[3.1.0]hexane-2,4-dione 2,2,2-trifluoroacetate] the value was less than 500 nM.
Consider `Cc1ccnc(-c2ccnc3cc(CN4C(=O)C5C(C4=O)C5(C)C)sc23)c1C(=O)N1CC(F)(F)C1` (centres unmarked) [Example 50, 3-((7-(3-(3,3-difluoroazetidine-1-carbonyl)-4-methylpyridin-2-yl)thieno[3,2-b]pyridin-2-yl)methyl)-6,6-dimethyl-3-azabicyclo[3.1.0]hexane-2,4-dione hydrochloride], for which the inhibition at 1 µM under setting [1] is less than 20%.
`Cc1cc(Cl)cc(-c2ccnc3ccoc23)c1O[C@H]1CCCNC1` [Example 150, (S)-7-(5-chloro-3-methyl-2-(piperidin-3-yloxy)phenyl)furo[3,2-b]pyridine 2,2,2-trifluoroacetate] came in with an IC50 of 1000 to 10000 nM.
On the same count and under the same terms, for `Cc1nc(Cl)cc(-c2ccnc3cc(CN4C(=O)C5C(C4=O)C5(C)C)sc23)c1NC(=O)C1CNC1` (centres unmarked) [Example 29, N-(6-chloro-4-(2-((6,6-dimethyl-2,4-dioxo-3-azabicyclo[3.1.0]hexan-3-yl)methyl)thieno[3,2-b]pyridin-7-yl)-2-methylpyridin-3-yl)azetidine-3-carboxamide 2,2,2-trifluoroacetate] the value was less than 500 nM.
Regarding `CC1(C)C2C(=O)N(Cc3cc4nccc(-c5cc(C(F)(F)F)nn5CC5CNCCO5)c4s3)C(=O)C21` (centres unmarked) [Example 7, 6,6-dimethyl-3-((7-(1-(morpholin-2-ylmethyl)-3-(trifluoromethyl)-1H-pyrazol-5-yl)thieno[3,2-b]pyridin-2-yl)methyl)-3-azabicyclo[3.1.0]hexane-2,4-dione 2,2,2-trifluoroacetate], the inhibition at 1 µM is less than 20%.
In turn, `Cc1cc(C(F)(F)F)nc(-c2ccnc3cc(CN4C(=O)C5C(C4=O)C5(C)C)sc23)c1C(=O)N1CC[C@H](NC(=O)[C@@H](N)C(C)C)C1` (stereo partly drawn) [Example 109, (2S)-2-amino-N-((3S)-1-(2-(2-((6,6-dimethyl-2,4-dioxo-3-azabicyclo[3.1.0]hexan-3-yl)methyl)thieno[3,2-b]pyridin-7-yl)-4-methyl-6-(trifluoromethyl)nicotinoyl)pyrrolidin-3-yl)-3-methylbutanamide dihydrochloride] came in with an IC50 of less than 500 nM.
The same measure, in the same setting: in the case of `CNCC(=O)Nc1c(-c2ccnc3cc(CN4C(=O)C5C(C4=O)C5(C)C)sc23)cc(C(F)(F)F)nc1C` (centres unmarked) [Example 60, N-(4-(2-((6,6-dimethyl-2,4-dioxo-3-azabicyclo[3.1.0]hexan-3-yl)methyl)thieno[3,2-b]pyridin-7-yl)-2-methyl-6-(trifluoromethyl)pyridin-3-yl)-2-(methylamino)acetamide 2,2,2-trifluoroacetate] it was more than 10000 nM.
In the case of `Cc1cc(C(F)(F)F)nc(-c2ccnc3cc(CN4C(=O)C5C(C4=O)C5(C)C)sc23)c1C(=O)NC1CCNCC1` (centres unmarked) [Example 111, 2-(2-((6,6-dimethyl-2,4-dioxo-3-azabicyclo[3.1.0]hexan-3-yl)methyl)thieno[3,2-b]pyridin-7-yl)-4-methyl-N-(piperidin-4-yl)-6-(trifluoromethyl)nicotinamide dihydrochloride], the inhibition at 1 µM under setting [1] is less than 20%.
Consider `CC1(C)C2C(=O)N(Cc3cc4nccc(-c5nc(C(F)(F)F)cn5C[C@@H]5CNCCO5)c4s3)C(=O)C21` (stereo partly drawn) [Example 149, 6,6-dimethyl-3-((7-(1-(((S)-morpholin-2-yl)methyl)-4-(trifluoromethyl)-1H-imidazol-2-yl)thieno[3,2-b]pyridin-2-yl)methyl)-3-azabicyclo[3.1.0]hexane-2,4-dione 2,2,2-trifluoroacetate], for which the inhibition at 1 µM is less than 20%.
As to `Cc1cc(Cl)cc(-c2ccnc3nc(C)n(C)c23)c1O[C@H]1CCCNC1` [Example 69, (S)-7-(5-chloro-3-methyl-2-(piperidin-3-yloxy)phenyl)-1,2-dimethyl-1H-imidazo[4,5-b]pyridine hydrochloride], the inhibition at 1 µM under setting [1] was less than 20%.
`Cc1cc(C(F)(F)F)nc(-c2ccnc3cc(CN4C(=O)C5C(C4=O)C5(C)C)sc23)c1C(=O)N1CCC(CNC(C)C)C1` (racemic) [Example 140, 3-((7-(3-(3-((isopropylamino)methyl)pyrrolidine-1-carbonyl)-4-methyl-6-(trifluoromethyl)pyridin-2-yl)thieno[3,2-b]pyridin-2-yl)methyl)-6,6-dimethyl-3-azabicyclo[3.1.0]hexane-2,4-dione trihydrochloride] had an IC50 of less than 500 nM.
On the same count and under the same terms, in the case of `Cc1cc(C(F)(F)F)nc(-c2ccnc3cc(CN4C(=O)C5C(C4=O)C5(C)C)sc23)c1C(=O)N1CCNCC1` (centres unmarked) [Example 76, 6,6-dimethyl-3-((7-(4-methyl-3-(piperazine-1-carbonyl)-6-(trifluoromethyl)pyridin-2-yl)thieno[3,2-b]pyridin-2-yl)methyl)-3-azabicyclo[3.1.0]hexane-2,4-dione dihydrochloride] it was less than 500 nM.
Consider `Cc1cc(C(F)(F)F)nc(-c2ccnc3cc(CN4C(=O)C5C(C4=O)C5(C)C)sc23)c1C(=O)N1C[C@@H](C)[C@H](N(C)C)C1` (stereo partly drawn) [Example 172, 3-((7-(3-((3S,4R)-3-(dimethylamino)-4-methylpyrrolidine-1-carbonyl)-4-methyl-6-(trifluoromethyl)pyridin-2-yl)thieno[3,2-b]pyridin-2-yl)methyl)-6,6-dimethyl-3-azabicyclo[3.1.0]hexane-2,4-dione hydrochloride], for which the inhibition at 1 µM under setting [1] was more than 70%.

A word on the IC50: it is the concentration that inhibits the measured activity by half. A word on the inhibition: it is the relative decrease from the control value, in per cent.
